Data on 12 compounds can be found in patent US20230134986A1, “GLUCOSE TRIPTOLIDE CONJUGATES AND USES THEREOF” (The Johns Hopkins University, priority 2020, published 2023).

One data set relates to HEK 293T cells. Nature of the data set: HEK293T cell proliferation assay ([3H]-thymidine incorporation). Type of data set: cell-based, human. The conditions noted are these: Homo sapiens; anti-proliferative activity, HEK 293T cells, 24 h drug exposure; read-out: IC50 ± SEM. The text has this:
Cells and culture conditions. Primary astrocytes (Lonza, Walkersville, Md.; ABM™ Basal Media with AGM™ SingleQuots™ Supplement Pack), fibroblast (ATCC; Fibroblast Basal Medium (ATCC© PCS-201-030™) with Fibroblast Growth Kit-Serum-free (ATCC© PCS-201-040™)), airway epithelial cell (ATCC; Airway Epithelial Cell Basal Medium (ATCC© PCS-300-030™) with Bronchial Epithelial Cell Growth Kit (ATCC© PCS-300-040™)), renal proximal tubule (ATCC; Renal Epithelial Cell Basal Medium (ATCC© PCS-400-030™) with Renal Epithelial Cell Growth Kit (ATCC© PCS-400-040™)), prostate epithelial cell (Lonza; PrEGM™ BulletKit™) and mammary epithelial cell (Lonza; MEBM™ BulletKit™) were kept in a humidified incubator at 37° C. adjusted to 5% CO2. Prostate (PC3, LNCaP, DU-145), breast (MDA-MB-231, MDA-MB-453, SK-BR-3), head and neck (A253, Detroit 562, SCC-25), melanoma (SK-Mel-3, SK-Mel-1, RPMI-7951), pancreatic (CfPAC-1, BxPC3, SW1990), lung (A549, NCI-H1299, NCI-H1437) and liver (SNU-475, SK-HEP-1, SNU-387) cancer cell lines were obtained from ATCC and cultured in their respective media (prostate cells: RPMI-1640, MDA-MB-231: RPMI-1640, MDA-MB-453: Leibovitz's L-15, SK-BR-3: McCoy's 5a, A253: McCoy's 5a, Detroit 562: EMEM, SCC-25: DMEM, SK-Mel-3: McCoy's 5a, SK-Mel-1: EMEM, RPMI-7951: EMEM), CfPAC-1: IMDM, BxPC3: RPMI-1640, SW1990: Leibovitz's L-15), A549: F-12K, NCI-H1299: RPMI-1640, NCI-H1437: RPMI-1640, SNU-475: RPMI-1640, SK-HEP-1: EMEM, SNU-387: RPMI-1640. All media were supplemented with 10% (vol/vol) filtered fetal bovine serum (FBS, Invitrogen, Carlsbad, Calif.), 1% penicillin/streptomycin (Invitrogen) and maintained in a humidified incubator at 37° C. with 5% CO2 except for MDA-MB-453 and SW1990 grown at 37° C. without CO2 control. Wild type (ATCC) and C342T XPB knock-in cells (named T7115) of Human Embryonic Kidney 293T (HEK293T), HeLa (ATCC) were cultured in DMEM (GIBCO) with 10% (vol/vol) filtered fetal bovine serum (FBS, Invitrogen, Carlsbad, Calif.), 1% penicillin/streptomycin (Invitrogen).
(§1) Proliferation and viability assays. [^3H]-thymidine incorporation. HEK293T cells (10,000 cells/well) were seeded into 96-well plates then cultured in DMEM plus 10% FBS and 1% penicillin/streptomycin at 37° C. with 5% CO2 overnight. Drugs were added at indicated concentrations and incubation was continued for an additional 24 h. For hypoxia, PC3 (5,000 cells/well) were exposed to 1% O2 (Airgas) in a humidified hypoxia chamber (Billups-Rothenberg) in 37° C. for 48 h prior to drug exposure for 48 h. Treated cells were then pulsed using an aliquot of 1 μCi of [^3H]-thymidine (Perkin Elmer) per well for an additional 6 h. Radiolabelled cells were harvested onto a printed Filtermat A glass fiber filter (Perkin Elmer) using a Tomtec Harvester 96 Mach III M. Betaplate Scint (Perkin Elmer) scintillation fluid was added to radiolabelled filters followed by scintillation counting on Microbeta2 LumiJET Microplate Counter (Perkin Elmer).

The conditions of data set [1]: cited from earlier work.
The test system of data set [2] is RPB1 (RNAPII) in PC3 cells. Nature of the data set: RPB1 degradation in PC3 cells under hypoxia, immunocytochemistry and western blot. Format: cell-based, human. The conditions noted are these: PC3, hypoxic (1% O2), 10 mM WZB117 plus 3 mM compound 1 (so in the source); μM). How it is done: (§2) Western blot analysis. Whole cell lysates were prepared by adding lysis buffer [4% SDS, 20% glycerol, 10% 2-mercaptoethanol, 0.004% bromophenol blue, 0.125 M Tris-HCl (pH 6.8)] to the cell pellets for 30 minutes in ice followed by centrifugation at 12,000×g for 10 minutes then boiling for 5 minutes. For isolation of cytosolic and mitochondrial fractions of cytochrome C, cell pellets were resuspended in CLAMI buffer (250 mM sucrose, 70 mM KCl, […] digitonin in 1×PBS, protease inhibitor cocktail (1 tablet/10 ml CLAMI buffer)) then incubated on ice for 5 minutes. After centrifugation at 12,000×g for 5 minutes at 4° C., supernatant (cytoplasmic fraction) was collected and the pellet resuspended in lysis buffer as described above. Proteins were then separated by SDS-PAGE and transferred to nitrocellulose membranes (Bio-Rad). […] Antibody-protein complexes were detected using enhanced chemiluminescence (ECL) immunoblotting detection reagent (EMD Millipore).
(§3) Immunocytochemistry and cytochemistry. […] Glucose uptake was monitored by incubating cells in 200 μM 2-NBDG (ThermoFisher) for 6 hours prior to fixation. Fluorescence was observed under the Nikon Eclipse TE200 Inverted microscope (Nikon Instruments Inc., Melville, N.Y., USA). […] Rpb1 levels were measured using the MEASURE feature of ImageJ where all the background signals were subtracted from the intergrated density of nuclear Rpb1.

For another data set, the system named is PC3 cells. Nature of the data set: PC3 proliferation under hypoxia or normoxia ([3H]-thymidine incorporation). Type of data set: cell-based, human. The conditions noted are these: hypoxia versus normoxia. The protocol: as §1
Data set [3] concerns RPB1 (catalytic subunit of RNAPII). Nature of the data set: RPB1 (RNAPII) degradation in HeLa cells, immunostaining and western blot. Format: cell-based, human. The protocol: (§4) Western blot analysis. Whole cell lysates were prepared by adding lysis buffer [4% SDS, 20% glycerol, 10% 2-mercaptoethanol, 0.004% bromophenol blue, 0.125 M Tris-HCl (pH 6.8)] to the cell pellets for 30 minutes in ice followed by centrifugation at 12,000×g for 10 minutes then boiling for 5 minutes. For isolation of cytosolic and mitochondrial fractions of cytochrome C, cell pellets were resuspended in CLAMI buffer (250 mM sucrose, 70 mM KCl, […] digitonin in 1×PBS, protease inhibitor cocktail (1 tablet/10 ml CLAMI buffer)) then incubated on ice for 5 minutes. After centrifugation at 12,000×g for 5 minutes at 4° C., supernatant (cytoplasmic fraction) was collected and the pellet resuspended in lysis buffer as described above. Proteins were then separated by SDS-PAGE and transferred to nitrocellulose membranes (Bio-Rad). After blocking at room temperature for 1 h, membranes were incubated at 4′C overnight with the primary antibodies including anti-Rpb1 (Santa Cruz Biotechnology), anti-XPB (Biotechne), anti-Actin (Developmental Studies Hybridoma Bank), anti-GAPDH (Santa Cruz Biotechnology), anti-cytochrome C (Santa Cruz Biotechnology), anti-PARP1 (Santa Cruz Biotechnology), anti-cleaved caspase 3 (Cell Signaling Technology), anti-VDAC (ProteinTech), anti-HIF-1[…] (BD sciences), and anti-GLUT1 (Santa Cruz Biotechnology) antibodies followed by incubation with horseradish peroxidase-conjugated anti-mouse or anti-rabbit IgG (GE Healthcare) at room temperature for 2 hours. Antibody-protein complexes were detected using enhanced chemiluminescence (ECL) immunoblotting detection reagent (EMD Millipore).
as §3

In another data set the target is T1, XPB (Homo sapiens, UniProt P19447).
T1 construct: spironolactone induces the degradation of endogenous XPB in cells; endogenous in cells
Nature of the data set: XPB degradation in cells, western blot. Format: cell-based. The conditions noted are these: 10 mM SP (so in the source). The protocol:
as §2

The next data set has as its system HeLa cells. As to the kind of experiment: Apoptosis signaling in HeLa cells (nuclear fragmentation, cytochrome c, caspase 3, PARP1). Type of data set: cell-based, human. The conditions noted are these: co-treatment with higher concentrations of SP. How it is done:
as §4
Immunocytochemistry and cytochemistry. HeLa or PC3 cells (2×10^5) were seeded on a MatTek glass bottom culture dish (Fisher Scientific, Pittsburgh, Pa., USA) and allowed to adhere for 24 h. Cells were then treated with either DMSO or drugs for 6 or 24 h then fixed with 4% paraformaldehyde, permeabilized using 1×PBS with 0.5% triton X 100 then probed for endogenous RNA Polymerase II catalytic subunit Rpb1 or HIF-1α using anti-RNAPII (Santa Cruz Biotechnology) and anti-HIF-1α (BD sciences) antibodies, respectively. Detection was then done using anti-mouse Alexa Fluor 488 (Invitrogen). For nuclear staining, fixed and permeabilized cells were incubated in DAPI (ThermoFisher) or Hoechst 33258 (Sigma) for 30 minutes prior to imaging. Glucose uptake was monitored by incubating cells in 200 μM 2-NBDG (ThermoFisher) for 6 hours prior to fixation. Fluorescence was observed under the Nikon Eclipse TE200 Inverted microscope (Nikon Instruments Inc., Melville, N.Y., USA). ImageJ software (NIH, Bethesda, Md., USA; http://imagej.nih.gov/ij/index.html) was used to measure intracellular protein levels in immuno-cytochemistry samples (Li et al. (2015) Toxicological Sciences: an Official Journal of the Society of Toxicology 143:196-208). Rpb1 levels were measured using the MEASURE feature of ImageJ where all the background signals were subtracted from the intergrated density of nuclear Rpb1.

Where [4] appears, read: lethal case dosed with 18 mg/m2 F60008.

T1 sequence (P19447 whole entry): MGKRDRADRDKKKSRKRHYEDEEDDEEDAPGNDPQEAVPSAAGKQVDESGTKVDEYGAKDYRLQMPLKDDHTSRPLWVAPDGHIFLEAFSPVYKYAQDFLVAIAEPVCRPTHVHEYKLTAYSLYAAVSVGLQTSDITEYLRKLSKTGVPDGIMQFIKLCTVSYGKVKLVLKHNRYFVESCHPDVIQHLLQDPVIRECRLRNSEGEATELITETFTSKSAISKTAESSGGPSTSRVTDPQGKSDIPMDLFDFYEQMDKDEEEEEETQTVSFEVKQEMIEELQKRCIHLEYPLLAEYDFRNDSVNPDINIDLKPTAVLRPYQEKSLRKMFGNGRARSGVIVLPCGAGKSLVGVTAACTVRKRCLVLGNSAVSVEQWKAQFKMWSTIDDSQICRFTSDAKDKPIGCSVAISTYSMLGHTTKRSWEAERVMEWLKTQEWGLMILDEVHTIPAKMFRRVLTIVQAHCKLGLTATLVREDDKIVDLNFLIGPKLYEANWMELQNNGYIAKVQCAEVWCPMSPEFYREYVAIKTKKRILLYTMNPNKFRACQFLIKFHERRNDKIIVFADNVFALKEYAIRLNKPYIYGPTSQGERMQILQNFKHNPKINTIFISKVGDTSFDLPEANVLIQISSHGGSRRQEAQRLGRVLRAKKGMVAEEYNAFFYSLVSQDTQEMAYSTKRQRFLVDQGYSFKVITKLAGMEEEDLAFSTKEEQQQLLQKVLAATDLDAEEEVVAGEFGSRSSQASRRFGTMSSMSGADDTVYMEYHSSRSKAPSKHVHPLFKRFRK

`CC(C)[C@]12O[C@H]1[C@@H]1O[C@]13[C@]1(O[C@H]1C[C@H]1C4=C(CC[C@@]13C)C(=O)OC4)[C@@H]2OC(=O)CC(C)(C)C(=O)O[C@@H]1OC(CO)[C@@H](O)C(O)C1O` (stereo partly drawn) [Compound 2]: the IC50 in the data set with HEK 293T cells came out at 3305 ± 0.98 nM.

For `CC(C)[C@]12O[C@H]1[C@@H]1O[C@]13[C@]1(O[C@H]1C[C@H]1C4=C(CC[C@@]13C)C(=O)OC4)[C@@H]2OC(=O)CC(C)(C)C(=O)O[C@H]1OC(CO)[C@@H](O)C(O)C1O` (stereo partly drawn) [Compound 3], the 50% inhibitory concentration (IC50) in the data set with HEK 293T cells was 999 ± 0.217 nM.

For `CC(C)[C@]12O[C@H]1[C@@H]1O[C@]13[C@]1(O[C@H]1C[C@H]1C4=C(CC[C@@]13C)C(=O)OC4)[C@@H]2OC(=O)c1ccccc1C(=O)O[C@@H]1OC(CO)[C@@H](O)C(O)C1O` (stereo partly drawn) [Compound 4], the IC50 in the data set with HEK 293T cells came out at 5888 ± 1.19 nM.

As for `CC(C)[C@]12O[C@H]1[C@@H]1O[C@]13[C@]1(O[C@H]1C[C@H]1C4=C(CC[C@@]13C)C(=O)OC4)[C@@H]2OC(=O)c1ccccc1C(=O)O[C@H]1OC(CO)[C@@H](O)C(O)C1O` (stereo partly drawn) [Compound 5], in the data set on HEK 293T cells, the IC50 came to 6667 ± 2.03 nM.

Consider `CC(C)[C@]12O[C@H]1[C@@H]1O[C@]13[C@]1(O[C@H]1C[C@H]1C4=C(CC[C@@]13C)C(=O)OC4)[C@@H]2OC(=O)CCCC(=O)O[C@@H]1OC(CO)[C@@H](O)C(O)C1O` (stereo partly drawn) [Compound 6], for which the IC50 in the data set on HEK 293T cells is 1134 ± 1.15 nM.

Turning to `CC(C)[C@]12O[C@H]1[C@@H]1O[C@]13[C@]1(O[C@H]1C[C@H]1C4=C(CC[C@@]13C)C(=O)OC4)[C@@H]2OC(=O)CCCC(=O)O[C@H]1OC(CO)[C@@H](O)C(O)C1O` (stereo partly drawn) [Compound 7], in the data set with HEK 293T cells, the IC50 came out at 735 ± 1.11 nM.

Regarding `CC(C)[C@]12O[C@H]1[C@@H]1O[C@]13[C@]1(O[C@H]1C[C@H]1C4=C(CC[C@@]13C)C(=O)OC4)[C@@H]2OC(=O)CCC(=O)OCC1OC(O)C(O)C(O)[C@@H]1O` (stereo partly drawn) [Compound 8], in the data set on HEK 293T cells, the IC50 amounted to 244 ± 0.81 nM.

For `CO[C@H]1OC(COC(=O)CCC(=O)O[C@@H]2[C@@]3(C(C)C)O[C@H]3[C@@H]3O[C@]34[C@]23O[C@H]3C[C@H]2C3=C(CC[C@@]24C)C(=O)OC3)[C@@H](O)C(O)C1O` (stereo partly drawn) [Compound 9], the half-inhibitory concentration (IC50) with HEK 293T cells stood at 395 ± 0.523 nM.

With `CC(C)C12OC1C1OC13C1(C)CCC4=C(COC4=O)C1CC1OC13C2OC(=O)CCC(=O)O` (stereo not drawn) [Compound F60008, triptolide-succinate], the lethality in patients entry in data set [1] (administered with <12 mg/m^2 F60008) was “no lethality was observed in 18 of the 20 patients”. In addition, the “lethality in early human clinical study” value in data set [1] (highest dose of therapy) is given as “lethal to two patients”. Moreover, in data set [1] (setting [4]), the Maximum serum levels is recorded as 1,361 ng/mL and the “Maximum serum levels (molar)” value was approximately 2.96 mM.

For `O=C(Oc1cccc(F)c1OC(=O)c1cccc(O)c1)c1cccc(O)c1` [WZB117, reference compound], the “effect on compound 1-induced RNAPII degradation” value in data set [2] is “abolished the rapid degradation of endogenous RNAPII”.

Turning to `COc1cccc2c1C(=O)c1c(O)c3c(c(O)c1C2=O)C[C@@](O)(C(=O)CO)C[C@@H]3O[C@H]1C[C@H](N)[C@H](O)[C@H](C)O1` [doxorubicin], the “change of potency under hypoxia” value in the data set on PC3 cells is listed as “decreased”.

As for `CC(=O)S[C@@H]1CC2=CC(=O)CC[C@]2(C)[C@H]2CC[C@@]3(C)[C@@H](CC[C@@]34CCC(=O)O4)[C@H]12` [spironolactone], the “endogenous RNAPII (RPB1) level” value in data set [3] (10 mM spironolactone alone (so in the source); 10 μM)) is recorded as “do not affect protein levels”. Also, the “rescue of RNAPII from compound 1-induced degradation” value in data set [3] (pre-treatment with 10 mM spironolactone (so in the source), then 1 mM compound 1) is “rescues endogenous RNAPII”. The “degradation of XPB” value on XPB is on record as “caused degradation of the majority of XPB”. The “effect on compound 1-induced PARP1 cleavage” value in the data set on HeLa cells is listed as “prevented PARP1 cleavage”.
